Results: patent US10131652B2, “Pyrimidinyloxy benzene derivatives as herbicides” (E. I. DU PONT DE NEMOURS AND COMPANY, priority 2014, dated 2018)
Where two headings read alike, the source gives them in different places.

Columns and labels:
Experiment in all cases: Test F pre-/postemergence plant response
Assay type in all cases: in vivo
[1] = system: Italian ryegrass (Lolium multiflorum); settings: Lolium multiflorum, scale 0 to 100, read-out: Plant response rating, Ryegrass, Italian; for pest or weed control at 16 g/ha: 16 g ai/ha; for pest or weed control at 31 g/ha: 31 g ai/ha; for pest or weed control at 125 g/ha: 125 g ai/ha
Method in brief: (§1)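 Values are visual ratings, where 100 is complete control and 0 is no effect, given after 14 to 21 days of greenhouse growth. Test chemicals in a non-phytotoxic, surfactant-containing solvent were sprayed on soil just after planting or on emerged seedlings at the 1- to 4-leaf stage.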

[2] = system: arrowleaf sida (Sida rhombifolia); settings: Sida rhombifolia, scale 0 to 100, read-out: Plant response rating, Arrowleaf Sida
Method in brief: as §1

[3] = system: barnyardgrass (Echinochloa crus-galli); settings: Echinochloa crus-galli, scale 0 to 100, read-out: Plant response rating, Barnyardgrass
Method in brief: as §1

[4] = system: corn (Zea mays); settings: Zea mays, scale 0 to 100
Method in brief: as §1

[5] = system: dayflower (Virginia (VA) dayflower, Commelina virginica); settings: Commelina virginica, scale 0 to 100, read-out: Plant response rating, Dayflower, VA
Method in brief: as §1

[6] = system: goosegrass (Eleusine indica); settings: Eleusine indica, pre-emergence, scale 0 to 100, read-out: Plant response rating, Goosegrass
Method in brief: as §1

[7] = system: hairy beggarticks (Bidens pilosa); settings: Bidens pilosa, scale 0 to 100, read-out: Plant response rating, Beggarticks
Method in brief: as §1

[8] = system: lambsquarters (Chenopodium album); settings: Chenopodium album, pre-emergence, Preemergence, scale 0 to 100, read-out: Plant response rating, Lambsquarters
Method in brief: as §1

[9] = system: palmer pigweed (Amaranthus palmeri); settings: Amaranthus palmeri, scale 0 to 100, read-out: Plant response rating, Pigweed, Palmer
Method in brief: as §1

[10] = system: ragweed (common ragweed, Ambrosia elatior); settings: Ambrosia artemisiifolia, scale 0 to 100, read-out: Plant response rating, Ragweed
Method in brief: as §1

[11] = system: sandbur (southern sandbur, Cenchrus echinatus); settings: Cenchrus echinatus, scale 0 to 100, read-out: Plant response rating, Sandbur
Method in brief: as §1

[12] = system: soybean (Glycine max); settings: Glycine max, scale 0 to 100, read-out: Plant response rating, Soybean
Method in brief: as §1

[13] = system: surinam grass (Brachiaria decumbens); settings: Urochloa decumbens, pre-emergence, scale 0 to 100, read-out: Plant response rating, Surinam Grass
Method in brief: as §1

[14] = system: velvetleaf (Abutilon theophrasti); settings: Abutilon theophrasti, pre-emergence, scale 0 to 100, read-out: Plant response rating, Velvetleaf
Method in brief: as §1

[15] = system: waterhemp (common waterhemp, Amaranthus rudis); settings: Amaranthus tuberculatus, scale 0 to 100, read-out: Plant response rating, Waterhemp
Method in brief: as §1

[16] = system: yellow nutsedge (Cyperus esculentus); settings: Cyperus, pre-emergence, scale 0 to 100, read-out: Plant response rating, Nutsedge, Yellow
Method in brief: as §1

[17] = post-emergence, 16 g ai/ha Postemergence
[18] = post-emergence, 31 g ai/ha Postemergence
[19] = post-emergence, 62 g ai/ha Postemergence
[20] = post-emergence, 125 g ai/ha Postemergence
[21] = pre-emergence, 16 g ai/ha Preemergence
[22] = pre-emergence, 31 g ai/ha Preemergence
[23] = pre-emergence, 62 g ai/ha Preemergence
[24] = pre-emergence, 125 g ai/ha Preemergence

SMILES: Fc1cccc(Oc2ncc(Br)cn2)c1-c1cc(C(F)F)no1 [Compound 145, 5-bromo-2-[2-[3-(difluoromethyl)-5-isoxazolyl]-3-fluorophenoxy]pyrimidine]
- pest or weed control at 16 g/ha ([1]; post-emergence, Postemergence): 10%
- pest or weed control at 31 g/ha ([1]; post-emergence, Postemergence): 5%
- pest or weed control at 62 g/ha ([1]; post-emergence, 62 g ai/ha, Postemergence): 10%
- pest or weed control at 125 g/ha ([1]; post-emergence, Postemergence): 15%
- pest or weed control at 16 g/ha ([1]; pre-emergence, Preemergence): 25%
- pest or weed control at 31 g/ha ([1]; pre-emergence, Preemergence): 20%
- pest or weed control at 125 g/ha ([1]; pre-emergence, Preemergence): 90%
- pest or weed control at 62 g/ha ([1]; pre-emergence, Preemergence): 40%
- pest or weed control at 16 g/ha [2, 17]: 95%
- pest or weed control at 31 g/ha [2, 18]: 95%
- pest or weed control at 62 g/ha [2, 19]: 98%
- pest or weed control at 125 g/ha [2, 20]: 95%
- pest or weed control at 16 g/ha [2, 21]: 65%
- pest or weed control at 31 g/ha [2, 22]: 90%
- pest or weed control at 62 g/ha [2, 23]: 98%
- pest or weed control at 125 g/ha [2, 24]: 98%
- pest or weed control at 16 g/ha [3, 17]: 10%
- pest or weed control at 31 g/ha [3, 18]: 25%
- pest or weed control at 62 g/ha [3, 19]: 50%
- pest or weed control at 125 g/ha [3, 20]: 70%
- pest or weed control at 16 g/ha [3, 21]: 0%
- pest or weed control at 31 g/ha [3, 22]: 5%
- pest or weed control at 62 g/ha [3, 23]: 30%
- pest or weed control at 125 g/ha [3, 24]: 75%
- Corn plant response rating (crop injury, 0 = no effect, 100 = complete kill) at 16 g/ha [4, 17]: 5%
- Corn plant response rating (crop injury, 0 = no effect, 100 = complete kill) at 31 g/ha [4, 18]: 10%
- Corn plant response rating (crop injury, 0 = no effect, 100 = complete kill) at 62 g/ha [4, 19]: 20%
- Corn plant response rating (crop injury, 0 = no effect, 100 = complete kill) at 125 g/ha [4, 20]: 20%
- Corn plant response rating (crop injury, 0 = no effect, 100 = complete kill) at 16 g/ha [4, 21]: 0%
- Corn plant response rating (crop injury, 0 = no effect, 100 = complete kill) at 31 g/ha [4, 22]: 0%
- Corn plant response rating (crop injury, 0 = no effect, 100 = complete kill) at 62 g/ha [4, 23]: 40%
- Corn plant response rating (crop injury, 0 = no effect, 100 = complete kill) at 125 g/ha [4, 24]: 60%
- pest or weed control at 16 g/ha [5, 17]: 50%
- pest or weed control at 31 g/ha [5, 18]: 60%
- pest or weed control at 62 g/ha [5, 19]: 75%
- pest or weed control at 125 g/ha [5, 20]: 85%
- pest or weed control at 16 g/ha [5, 21]: 0%
- pest or weed control at 31 g/ha [5, 22]: 0%
- pest or weed control at 62 g/ha [5, 23]: 35%
- pest or weed control at 125 g/ha [5, 24]: 70%
- pest or weed control at 16 g/ha ([6]; 16 g ai/ha Preemergence): 0%
- pest or weed control at 31 g/ha ([6]; 31 g ai/ha Preemergence): 70%
- pest or weed control at 125 g/ha ([6]; 125 g ai/ha Preemergence): 95%
- pest or weed control at 62 g/ha ([6]; Preemergence): 80%
- pest or weed control at 16 g/ha [7, 17]: 55%
- pest or weed control at 31 g/ha [7, 18]: 50%
- pest or weed control at 62 g/ha [7, 19]: 65%
- pest or weed control at 125 g/ha [7, 20]: 70%
- pest or weed control at 16 g/ha [7, 21]: 0%
- pest or weed control at 31 g/ha [7, 22]: 35%
- pest or weed control at 62 g/ha [7, 23]: 30%
- pest or weed control at 125 g/ha [7, 24]: 25%
- pest or weed control at 16 g/ha ([8]; 16 g ai/ha): 100%
- pest or weed control at 31 g/ha ([8]; 31 g ai/ha): 100%
- pest or weed control at 125 g/ha ([8]; 125 g ai/ha): 100%
- pest or weed control at 62 g/ha [8]: 100%
- pest or weed control at 16 g/ha [9, 17]: 95%
- pest or weed control at 31 g/ha [9, 18]: 100%
- pest or weed control at 62 g/ha [9, 19]: 100%
- pest or weed control at 125 g/ha [9, 20]: 100%
- pest or weed control at 16 g/ha [9, 21]: 100%
- pest or weed control at 31 g/ha [9, 22]: 100%
- pest or weed control at 125 g/ha [9, 24]: 100%
- pest or weed control at 62 g/ha ([9]; pre-emergence, Preemergence): 100%
- pest or weed control at 16 g/ha [10, 17]: 30%
- pest or weed control at 31 g/ha [10, 18]: 50%
- pest or weed control at 62 g/ha [10, 19]: 60%
- pest or weed control at 125 g/ha [10, 20]: 70%
- pest or weed control at 16 g/ha [10, 21]: 0%
- pest or weed control at 31 g/ha [10, 22]: 70%
- pest or weed control at 125 g/ha [10, 24]: 80%
- pest or weed control at 62 g/ha ([10]; pre-emergence, Preemergence): 65%
- pest or weed control at 16 g/ha [11, 17]: 5%
- pest or weed control at 31 g/ha [11, 18]: 5%
- pest or weed control at 62 g/ha [11, 19]: 5%
- pest or weed control at 125 g/ha [11, 20]: 15%
- pest or weed control at 16 g/ha [11, 21]: 0%
- pest or weed control at 31 g/ha [11, 22]: 35%
- pest or weed control at 125 g/ha [11, 24]: 95%
- pest or weed control at 62 g/ha ([11]; pre-emergence, Preemergence): 25%
- plant injury at 16 g/ha [12, 17]: 95%
- plant injury at 31 g/ha [12, 18]: 95%
- plant injury at 62 g/ha [12, 19]: 95%
- plant injury at 125 g/ha [12, 20]: 95%
- plant injury at 16 g/ha [12, 21]: 0%
- plant injury at 31 g/ha [12, 22]: 0%
- plant injury at 125 g/ha [12, 24]: 40%
- plant injury at 62 g/ha ([12]; pre-emergence, Preemergence): 15%
- pest or weed control at 16 g/ha ([13]; 16 g ai/ha Preemergence): 0%
- pest or weed control at 31 g/ha ([13]; 31 g ai/ha Preemergence): 0%
- pest or weed control at 125 g/ha ([13]; 125 g ai/ha Preemergence): 25%
- pest or weed control at 62 g/ha ([13]; Preemergence): 0%
- pest or weed control at 16 g/ha ([14]; 16 g ai/ha Preemergence): 35%
- pest or weed control at 31 g/ha ([14]; 31 g ai/ha Preemergence): 98%
- pest or weed control at 125 g/ha ([14]; 125 g ai/ha Preemergence): 100%
- pest or weed control at 62 g/ha ([14]; Preemergence): 100%
- pest or weed control at 16 g/ha [15, 17]: 95%
- pest or weed control at 31 g/ha [15, 18]: 98%
- pest or weed control at 62 g/ha [15, 19]: 100%
- pest or weed control at 125 g/ha [15, 20]: 100%
- pest or weed control at 16 g/ha [15, 21]: 100%
- pest or weed control at 31 g/ha [15, 22]: 100%
- pest or weed control at 125 g/ha [15, 24]: 100%
- pest or weed control at 62 g/ha ([15]; pre-emergence, Preemergence): 100%
- pest or weed control at 16 g/ha ([16]; 16 g ai/ha Preemergence): 0%
- pest or weed control at 31 g/ha ([16]; 31 g ai/ha Preemergence): 0%
- pest or weed control at 125 g/ha ([16]; 125 g ai/ha Preemergence): 0%
- pest or weed control at 62 g/ha ([16]; Preemergence): 0%
